Laboratory results from ChEMBL document CHEMBL4507316 (2021).

How the values were obtained:
[1] = target: Sigma intracellular receptor 2 (Homo sapiens, UniProt Q5BJF2); test: GPCRScan assay: inhibition of Sigma 2; design: radioligand conc. used [nm] 5.0, parental cells HEKT
[2] = target: Mitogen-activated protein kinase kinase kinase 5 (Homo sapiens) (UniProt Q99683); test: ASK1 ProQinase selectivity panel; conditions: Compound concentration 1.0 uM
[3] = target: Bone morphogenetic protein receptor type-1A (Homo sapiens) (UniProt P36894); test: BMPR1A ProQinase selectivity panel; conditions: Compound concentration 1.0 uM
[4] = target: Serine/threonine-protein kinase B-raf (Homo sapiens) (UniProt P15056); test: B-RAF wt ProQinase selectivity panel; conditions: Compound concentration 1.0 uM
[5] = target: Calcium/calmodulin-dependent protein kinase type II subunit delta (Homo sapiens) (UniProt Q13557); test: CAMK2D ProQinase selectivity panel; conditions: Compound concentration 1.0 uM
[6] = target: CDK1/Cyclin E (Homo sapiens) (UniProt P06493+P24864); test: CDK1/CycE ProQinase selectivity panel; type: protein-complex assay; conditions: Compound concentration 1.0 uM
[7] = target: Cyclin-dependent kinase 2/cyclin E (Homo sapiens) (UniProt P24864+P24941+O96020); test: CDK2/CycE ProQinase selectivity panel; type: protein-complex assay; conditions: Compound concentration 1.0 uM
[8] = target: Dual specificity protein kinase CLK1 (Homo sapiens) (UniProt P49759); test: CLK1 ProQinase selectivity panel; conditions: Compound concentration 1.0 uM
[9] = target: Dual specificity protein kinase CLK2 (Homo sapiens) (UniProt P49760); test: CLK2 ProQinase selectivity panel; conditions: Compound concentration 1.0 uM
[10] = target: Death-associated protein kinase 2 (Homo sapiens) (UniProt Q9UIK4); test: DAPK2 ProQinase selectivity panel; conditions: Compound concentration 1.0 uM
[11] = target: Death-associated protein kinase 3 (Homo sapiens) (UniProt O43293); test: DAPK3 ProQinase selectivity panel; conditions: Compound concentration 1.0 uM
[12] = target: Receptor tyrosine-protein kinase erbB-4 (Homo sapiens) (UniProt Q15303); test: ERBB4 ProQinase selectivity panel; conditions: Compound concentration 1.0 uM
[13] = target: Mitogen-activated protein kinase 1 (Homo sapiens) (UniProt P28482); test: ERK2 ProQinase selectivity panel; conditions: Compound concentration 1.0 uM
[14] = target: Glycogen synthase kinase-3 alpha (Homo sapiens) (UniProt P49840); test: GSK3-alpha ProQinase selectivity panel; conditions: Compound concentration 1.0 uM
[15] = test system: Mast/stem cell growth factor receptor Kit (Homo sapiens), P10721 [T670I]; test: KIT T670I ProQinase selectivity panel; conditions: Compound concentration 1.0 uM
[16] = target: Mitogen-activated protein kinase kinase kinase 10 (Homo sapiens) (UniProt Q02779); test: MAP3K10 ProQinase selectivity panel; conditions: Compound concentration 1.0 uM
[17] = target: MAP kinase-activated protein kinase 5 (Homo sapiens) (UniProt Q8IW41); test: MAPKAPK5 ProQinase selectivity panel; conditions: Compound concentration 1.0 uM
[18] = target: MAP/microtubule affinity-regulating kinase 4 (Homo sapiens) (UniProt Q96L34); test: MARK4 ProQinase selectivity panel; conditions: Compound concentration 1.0 uM
[19] = test system: Hepatocyte growth factor receptor (Homo sapiens), P08581 [F1200I]; test: MET F1200I ProQinase selectivity panel; conditions: Compound concentration 1.0 uM
[20] = test system: Hepatocyte growth factor receptor (Homo sapiens), P08581 [Y1230H]; test: MET Y1230H ProQinase selectivity panel; conditions: Compound concentration 1.0 uM
[21] = target: Serine/threonine-protein kinase 3 (Homo sapiens) (UniProt Q13188); test: MST2 ProQinase selectivity panel; conditions: Compound concentration 1.0 uM
[22] = target: Serine/threonine-protein kinase 26 (Homo sapiens) (UniProt Q9P289); test: MST4 ProQinase selectivity panel; conditions: Compound concentration 1.0 uM
[23] = target: Myosin light chain kinase (Homo sapiens) (UniProt Q32MK0); test: MYLK3 ProQinase selectivity panel; conditions: Compound concentration 1.0 uM
[24] = target: Serine/threonine-protein kinase Nek4 (Homo sapiens) (UniProt P51957); test: NEK4 ProQinase selectivity panel; conditions: Compound concentration 1.0 uM
[25] = target: Serine/threonine-protein kinase Nek6 (Homo sapiens) (UniProt Q9HC98); test: NEK6 ProQinase selectivity panel; conditions: Compound concentration 1.0 uM
[26] = target: Mitogen-activated protein kinase 14 (Homo sapiens) (UniProt Q16539); test: p38-alpha ProQinase selectivity panel; conditions: Compound concentration 1.0 uM
[27] = target: Protein kinase C alpha type (Homo sapiens) (UniProt P17252); test: PKC-alpha ProQinase selectivity panel; conditions: Compound concentration 1.0 uM
[28] = target: Protein kinase C beta type (Homo sapiens) (UniProt P05771); test: PKC-beta2 ProQinase selectivity panel; conditions: Compound concentration 1.0 uM
[29] = target: Protein kinase C theta type (Homo sapiens) (UniProt Q04759); test: PKC-theta ProQinase selectivity panel; conditions: Compound concentration 1.0 uM
[30] = target: cGMP-dependent protein kinase 1 (Homo sapiens) (UniProt Q13976); test: PRKG1 ProQinase selectivity panel; conditions: Compound concentration 1.0 uM
[31] = target: cGMP-dependent protein kinase 2 (Homo sapiens) (UniProt Q13237); test: PRKG2 ProQinase selectivity panel; conditions: Compound concentration 1.0 uM
[32] = target: Proto-oncogene tyrosine-protein kinase receptor Ret (Homo sapiens) (UniProt P07949); test: RET wt ProQinase selectivity panel; conditions: Compound concentration 1.0 uM
[33] = target: Macrophage-stimulating protein receptor (Homo sapiens) (UniProt Q04912); test: RON ProQinase selectivity panel; conditions: Compound concentration 1.0 uM
[34] = target: Proto-oncogene tyrosine-protein kinase ROS (Homo sapiens) (UniProt P08922); test: ROS ProQinase selectivity panel; conditions: Compound concentration 1.0 uM
[35] = target: Ribosomal protein S6 kinase alpha-3 (Homo sapiens) (UniProt P51812); test: RPS6KA3 ProQinase selectivity panel; conditions: Compound concentration 1.0 uM
[36] = target: Ribosomal protein S6 kinase alpha-4 (Homo sapiens) (UniProt O75676); test: RPS6KA4 ProQinase selectivity panel; conditions: Compound concentration 1.0 uM
[37] = target: Serine/threonine-protein kinase PLK4 (Homo sapiens) (UniProt O00444); test: SAK ProQinase selectivity panel; conditions: Compound concentration 1.0 uM
[38] = target: Serine/threonine-protein kinase Sgk1 (Homo sapiens) (UniProt O00141); test: SGK1 ProQinase selectivity panel; conditions: Compound concentration 1.0 uM
[39] = target: Serine/threonine-protein kinase Sgk3 (Homo sapiens) (UniProt Q96BR1); test: SGK3 ProQinase selectivity panel; conditions: Compound concentration 1.0 uM
[40] = target: STE20-like serine/threonine-protein kinase (Homo sapiens) (UniProt Q9H2G2); test: SLK ProQinase selectivity panel; conditions: Compound concentration 1.0 uM
[41] = target: SRSF protein kinase 3 (Homo sapiens) (UniProt Q9UPE1); test: STK23 ProQinase selectivity panel; conditions: Compound concentration 1.0 uM
[42] = target: Serine/threonine-protein kinase 25 (Homo sapiens) (UniProt O00506); test: STK25 ProQinase selectivity panel; conditions: Compound concentration 1.0 uM
[43] = target: Serine/threonine-protein kinase TBK1 (Homo sapiens) (UniProt Q9UHD2); test: TBK1 ProQinase selectivity panel; conditions: Compound concentration 1.0 uM
[44] = target: TGF-beta receptor type-2 (Homo sapiens) (UniProt P37173); test: TGFB-R2 ProQinase selectivity panel; conditions: Compound concentration 1.0 uM
[45] = target: Serine/threonine-protein kinase WNK2 (Homo sapiens) (UniProt Q9Y3S1); test: WNK2 ProQinase selectivity panel; conditions: Compound concentration 1.0 uM
[46] = target: 5-hydroxytryptamine receptor 2A (Homo sapiens, UniProt P28223); conditions: Compound concentration 10.0 uM
[47] = target: D(1B) dopamine receptor (Homo sapiens) (UniProt P21918); conditions: Compound concentration 10.0 uM
[48] = target: Kappa-type opioid receptor (Homo sapiens) (UniProt P41145); conditions: Compound concentration 10.0 uM
[49] = target: Histamine H1 receptor (Homo sapiens) (UniProt P35367); conditions: Compound concentration 10.0 uM

Chain of Sigma intracellular receptor 2 (Q5BJF2 whole entry): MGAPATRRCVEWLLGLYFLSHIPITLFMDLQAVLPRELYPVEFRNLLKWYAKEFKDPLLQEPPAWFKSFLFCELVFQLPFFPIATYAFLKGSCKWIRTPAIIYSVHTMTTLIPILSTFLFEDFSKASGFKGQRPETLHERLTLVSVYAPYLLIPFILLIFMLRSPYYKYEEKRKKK
Chain of Serine/threonine-protein kinase 25 (Homo sapiens) (O00506 whole entry, looked up): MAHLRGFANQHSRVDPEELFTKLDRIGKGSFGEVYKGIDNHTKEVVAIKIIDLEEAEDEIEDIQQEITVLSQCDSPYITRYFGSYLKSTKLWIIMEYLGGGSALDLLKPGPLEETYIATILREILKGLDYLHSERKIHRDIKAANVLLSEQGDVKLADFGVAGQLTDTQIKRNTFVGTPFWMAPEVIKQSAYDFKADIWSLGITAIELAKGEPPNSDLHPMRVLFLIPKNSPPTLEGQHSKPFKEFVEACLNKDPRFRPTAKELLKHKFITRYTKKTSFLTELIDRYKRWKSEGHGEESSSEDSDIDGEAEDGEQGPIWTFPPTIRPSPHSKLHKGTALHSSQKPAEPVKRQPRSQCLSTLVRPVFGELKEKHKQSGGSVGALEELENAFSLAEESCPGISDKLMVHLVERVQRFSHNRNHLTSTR
Chain of Mitogen-activated protein kinase kinase kinase 5 (Homo sapiens) (Q99683 whole entry): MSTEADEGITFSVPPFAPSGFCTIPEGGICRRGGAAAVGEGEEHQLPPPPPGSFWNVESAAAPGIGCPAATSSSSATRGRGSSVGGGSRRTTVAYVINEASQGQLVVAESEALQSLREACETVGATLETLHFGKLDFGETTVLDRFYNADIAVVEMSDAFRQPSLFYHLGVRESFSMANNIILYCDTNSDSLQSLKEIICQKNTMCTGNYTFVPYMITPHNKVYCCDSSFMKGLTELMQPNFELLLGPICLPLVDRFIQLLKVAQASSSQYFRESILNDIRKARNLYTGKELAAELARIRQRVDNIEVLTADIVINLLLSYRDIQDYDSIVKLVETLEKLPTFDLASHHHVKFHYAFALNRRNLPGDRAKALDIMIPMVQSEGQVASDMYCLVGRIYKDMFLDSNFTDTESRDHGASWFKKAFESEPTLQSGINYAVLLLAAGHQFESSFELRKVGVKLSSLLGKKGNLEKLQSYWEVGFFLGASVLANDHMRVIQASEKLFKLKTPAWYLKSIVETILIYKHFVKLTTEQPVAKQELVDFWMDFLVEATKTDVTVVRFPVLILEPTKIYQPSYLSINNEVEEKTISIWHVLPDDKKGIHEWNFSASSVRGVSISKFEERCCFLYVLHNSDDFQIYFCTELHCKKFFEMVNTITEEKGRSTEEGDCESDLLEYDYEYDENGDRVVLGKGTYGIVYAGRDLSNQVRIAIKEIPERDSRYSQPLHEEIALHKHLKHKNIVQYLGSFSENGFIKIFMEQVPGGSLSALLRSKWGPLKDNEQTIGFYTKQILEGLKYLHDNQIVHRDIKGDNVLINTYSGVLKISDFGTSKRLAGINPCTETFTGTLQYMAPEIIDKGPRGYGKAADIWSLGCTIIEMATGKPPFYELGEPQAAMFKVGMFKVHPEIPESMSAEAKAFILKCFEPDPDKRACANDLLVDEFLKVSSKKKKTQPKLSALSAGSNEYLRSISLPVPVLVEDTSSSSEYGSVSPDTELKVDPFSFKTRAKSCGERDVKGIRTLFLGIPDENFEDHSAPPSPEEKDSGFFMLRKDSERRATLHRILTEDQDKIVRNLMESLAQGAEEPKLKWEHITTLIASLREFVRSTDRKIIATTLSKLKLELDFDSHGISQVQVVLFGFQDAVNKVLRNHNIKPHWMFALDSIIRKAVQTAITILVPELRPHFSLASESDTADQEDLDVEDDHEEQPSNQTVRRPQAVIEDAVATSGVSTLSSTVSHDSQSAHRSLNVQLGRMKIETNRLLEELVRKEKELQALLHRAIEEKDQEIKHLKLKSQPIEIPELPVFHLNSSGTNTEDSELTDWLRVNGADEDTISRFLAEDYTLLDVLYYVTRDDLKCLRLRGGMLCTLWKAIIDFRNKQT
Chain of Serine/threonine-protein kinase 26 (Homo sapiens) (Q9P289 2-416 limits assumed): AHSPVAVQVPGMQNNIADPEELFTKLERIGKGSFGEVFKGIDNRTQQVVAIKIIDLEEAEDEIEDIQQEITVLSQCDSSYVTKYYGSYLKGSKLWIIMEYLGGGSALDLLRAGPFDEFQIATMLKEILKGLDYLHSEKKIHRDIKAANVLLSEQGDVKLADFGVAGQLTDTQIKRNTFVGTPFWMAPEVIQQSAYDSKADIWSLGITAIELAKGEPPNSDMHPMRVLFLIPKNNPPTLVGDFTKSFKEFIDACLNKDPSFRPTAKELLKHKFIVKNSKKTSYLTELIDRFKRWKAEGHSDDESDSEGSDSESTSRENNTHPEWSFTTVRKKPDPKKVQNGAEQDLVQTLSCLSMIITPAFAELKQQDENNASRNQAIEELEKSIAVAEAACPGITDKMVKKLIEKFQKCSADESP
Chain of Serine/threonine-protein kinase B-raf (Homo sapiens) (P15056 whole entry): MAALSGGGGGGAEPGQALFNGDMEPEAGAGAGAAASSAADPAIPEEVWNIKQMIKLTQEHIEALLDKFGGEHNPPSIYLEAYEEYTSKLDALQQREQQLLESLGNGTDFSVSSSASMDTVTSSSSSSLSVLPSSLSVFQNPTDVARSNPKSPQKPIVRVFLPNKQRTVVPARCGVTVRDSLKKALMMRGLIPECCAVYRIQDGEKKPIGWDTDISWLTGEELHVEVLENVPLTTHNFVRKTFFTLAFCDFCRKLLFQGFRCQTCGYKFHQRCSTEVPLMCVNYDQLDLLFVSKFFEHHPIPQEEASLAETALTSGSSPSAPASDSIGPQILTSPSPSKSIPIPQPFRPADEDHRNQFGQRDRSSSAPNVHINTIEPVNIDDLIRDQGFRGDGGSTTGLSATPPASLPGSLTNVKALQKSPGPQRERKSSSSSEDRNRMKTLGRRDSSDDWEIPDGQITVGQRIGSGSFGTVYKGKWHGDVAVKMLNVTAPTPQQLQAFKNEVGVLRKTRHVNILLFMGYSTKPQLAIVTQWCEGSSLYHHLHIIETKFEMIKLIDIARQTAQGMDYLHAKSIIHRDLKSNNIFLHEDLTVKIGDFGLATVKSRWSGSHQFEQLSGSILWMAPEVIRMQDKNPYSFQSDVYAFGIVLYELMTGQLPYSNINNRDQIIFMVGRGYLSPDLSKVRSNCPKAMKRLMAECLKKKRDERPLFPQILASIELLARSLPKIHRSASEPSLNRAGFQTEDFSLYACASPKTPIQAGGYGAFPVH
Chain of Calcium/calmodulin-dependent protein kinase type II subunit delta (Homo sapiens) (Q13557 whole entry): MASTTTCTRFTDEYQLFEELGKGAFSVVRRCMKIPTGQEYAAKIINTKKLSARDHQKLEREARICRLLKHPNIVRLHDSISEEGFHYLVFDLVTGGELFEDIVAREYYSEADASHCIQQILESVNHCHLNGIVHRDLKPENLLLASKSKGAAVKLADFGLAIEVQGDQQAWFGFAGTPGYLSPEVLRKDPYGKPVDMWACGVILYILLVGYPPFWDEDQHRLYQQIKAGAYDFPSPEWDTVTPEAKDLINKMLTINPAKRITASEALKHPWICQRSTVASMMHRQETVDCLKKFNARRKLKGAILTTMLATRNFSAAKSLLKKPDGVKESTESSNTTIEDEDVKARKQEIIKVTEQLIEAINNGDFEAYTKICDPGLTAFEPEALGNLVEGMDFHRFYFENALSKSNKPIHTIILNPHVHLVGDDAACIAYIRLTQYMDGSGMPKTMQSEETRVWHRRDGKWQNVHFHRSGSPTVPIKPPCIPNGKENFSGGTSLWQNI
Chain of Mitogen-activated protein kinase 14 (Homo sapiens) (Q16539 whole entry): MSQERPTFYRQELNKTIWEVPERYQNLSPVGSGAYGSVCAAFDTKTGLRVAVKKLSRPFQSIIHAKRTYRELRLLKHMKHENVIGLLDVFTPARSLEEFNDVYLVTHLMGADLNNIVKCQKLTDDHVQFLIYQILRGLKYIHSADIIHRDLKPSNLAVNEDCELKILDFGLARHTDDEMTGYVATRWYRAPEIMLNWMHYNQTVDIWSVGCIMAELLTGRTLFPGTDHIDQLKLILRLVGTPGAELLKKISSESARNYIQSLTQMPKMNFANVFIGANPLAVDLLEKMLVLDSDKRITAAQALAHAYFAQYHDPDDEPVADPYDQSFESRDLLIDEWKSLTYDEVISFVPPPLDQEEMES
Chain of Serine/threonine-protein kinase Nek6 (Homo sapiens) (Q9HC98 whole entry): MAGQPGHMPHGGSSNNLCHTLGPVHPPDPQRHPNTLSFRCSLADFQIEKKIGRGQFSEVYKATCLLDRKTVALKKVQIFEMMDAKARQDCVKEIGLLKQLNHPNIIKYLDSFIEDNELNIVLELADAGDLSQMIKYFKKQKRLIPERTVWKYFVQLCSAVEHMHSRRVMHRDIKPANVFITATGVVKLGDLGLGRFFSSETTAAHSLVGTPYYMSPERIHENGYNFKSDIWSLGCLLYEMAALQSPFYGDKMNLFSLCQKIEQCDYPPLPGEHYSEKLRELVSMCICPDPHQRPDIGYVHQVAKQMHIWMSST

O=C1c2ccc(Nc3ccc(F)cc3F)cc2CCc2ccc(OC[C@H](O)CO)cc21 [Skepinone-L]
active: inhibition [46] 73.1%
3.36 µM: Ki ([1]; read-out: Ki)
3.24 µM: Ki ([1]; read-out: pKi (converted))
inactive: % Residual activity with Skepinone-L [2] 103% | % Residual activity with Skepinone-L [3] 100% | % Residual activity with Skepinone-L [4] 112% | % Residual activity with Skepinone-L [5] 43% | % Residual activity with Skepinone-L [6] 87% | % Residual activity with Skepinone-L [7] 85% | % Residual activity with Skepinone-L [8] 106% | % Residual activity with Skepinone-L [9] 89% | % Residual activity with Skepinone-L [10] 88% | % Residual activity with Skepinone-L [11] 89% | % Residual activity with Skepinone-L [12] 106% | % Residual activity with Skepinone-L [13] 83% | % Residual activity with Skepinone-L [14] 93% | % Residual activity with Skepinone-L [15] 145% | % Residual activity with Skepinone-L [16] 101% | % Residual activity with Skepinone-L [17] 97% | % Residual activity with Skepinone-L [18] 96% | % Residual activity with Skepinone-L [19] 96% | % Residual activity with Skepinone-L [20] 102% | % Residual activity with Skepinone-L [21] 83% | % Residual activity with Skepinone-L [22] 106% | % Residual activity with Skepinone-L [23] 85% | % Residual activity with Skepinone-L [24] 99% | % Residual activity with Skepinone-L [25] 97% | % Residual activity with Skepinone-L [26] 0% | % Residual activity with Skepinone-L [27] 96% | % Residual activity with Skepinone-L [28] 97% | % Residual activity with Skepinone-L [29] 99% | % Residual activity with Skepinone-L [30] 110% | % Residual activity with Skepinone-L [31] 94% | % Residual activity with Skepinone-L [32] 102% | % Residual activity with Skepinone-L [33] 56% | % Residual activity with Skepinone-L [34] 102% | % Residual activity with Skepinone-L [35] 89% | % Residual activity with Skepinone-L [36] 107% | % Residual activity with Skepinone-L [37] 62% | % Residual activity with Skepinone-L [38] 90% | % Residual activity with Skepinone-L [39] 102% | % Residual activity with Skepinone-L [40] 39% | % Residual activity with Skepinone-L [41] 96% | % Residual activity with Skepinone-L [42] 100% | % Residual activity with Skepinone-L [43] 87% | % Residual activity with Skepinone-L [44] 77% | % Residual activity with Skepinone-L [45] 95% | inhibition [47] 21% | inhibition [48] -4% | inhibition [49] 12.7%
